From patent US20210260069A1, “IRE1a INHIBITOR IN COMBINATION WITH CANCER [sequence] AGENT FOR CANCER TREATMENT” (Fosun Orinove PharmaTech, Inc., priority 2018, published 2021)
Where two headings read alike, the source gives them in different places.

How the values were obtained:
[1] = system: human breast adenocarcinoma MDA-MB231 tumor cells; assay type: in vivo; details: Orin 1001 300 mg/kg where given; paclitaxel 10 mg/kg iv weekly; n=10/group
Procedure: Orin 1001 was administered by oral gavage in combination with paclitaxel in a xenograft mouse model using female NCr nu/nu mice (n=10 in each group) injected subcutaneously with human breast adenocarcinoma MDA-MB231 tumor cells. To evaluate the effect of Orin 1001 in combination with paclitaxel, Orin 1001 was administered via oral gavage at 75, 150 or 300 mg/kg/day in combination with paclitaxel at 10 mg/kg iv, weekly (n=10/group) for up to 60 days.

[2] = system: human ovarian carcinoma A2780 tumor cells; assay: A2780 ovarian carcinoma xenograft (Example 18); assay type: in vivo, female NCr nu/nu mice; details: Orin 1001 300 mg/kg/day oral 28 days; paclitaxel 15 mg/kg iv weekly; endpoint 2000 mm^3 or Day 60
Procedure: (§1) Orin 1001 was administered by oral gavage in a xenograft mouse model using female NCr nu/nu mice injected subcutaneously with human ovarian carcinoma A2780 tumor cells. Animals were assigned to 4 groups (n=6/group); Vehicle control administered by oral gavage for 28 days, Orin 1001 administered via oral gavage at 300 mg/kg/day for 28 consecutive days, paclitaxel administered weekly by iv at 15 mg/kg, or Orin 1001 administered in combination with paclitaxel.
The percent tumor growth delay was calculated using the following equation: TGD (%)=[T-C/C]×100, where T-C is the difference in time to tumor endpoint from Treated (T) and Control (C).

[3] = system: human glioblastoma U-87 MG tumor cells; assay: U-87 MG glioblastoma xenograft (Example 19); assay type: in vivo, female NCr nu/nu mice
Procedure: as §1, with “glioblastoma U-87 MG” for “ovarian carcinoma A2780”, “cells, a glioblastoma multiforme (GBM) cell line.” for “cells.”
The percent tumor growth delay was calculated using the following equation: TGD (%)=[T-C/C]×100; where T-C is the difference in time to tumor endpoint from Treated (T) and Control (C).
The time to tumor endpoint (TTE) for each animal was further calculated using the following equation: TTE (days)=log 10 (endpoint volume, mm^3)-b/m, where b is the intercept and m is the slope of the line obtained by linear regression of the log-transformed tumor growth data set.

RPMI 8226 cells = assay: XBP1s level induced in RPMI 8226 cells; assay type: cell-based, human
Procedure: (§2) Briefly, cells were grown in standard conditions and spread into 96 well tissue culture plates. Cells were treated with compounds with indicated concentration using serial dilutions. DTT (dithiothreitol) or compounds were added at the same time and cells were harvested after indicated hour's treatment. Cells treated with DTT alone were used as 100% XBP1s positive controls and cell left untreated were used as base line XBP1s level.
(§3) Splicing Assay: Total RNA was isolated from cells treated with compounds using Applied Biosystems RNAqueous kit. 1 μg of total RNA was reverse transcribed using Oligo dt (12-18) (Invitrogen). The cDNA was then amplified at 95° C. for 8 min and 30 sec, then 40 cycles at 95° C. for 15 sec and 63° C. for 1 min. Samples were run against a purified standard curve for both spliced and unspliced XBP1, and further normalized to internal house-keeping gene GAPDH.
The same methods were used as above for Lestaurtinib.

XBP1s = assay: Determination of XBP1s level induced by various compounds (RT-qPCR splicing assay), several cell lines; assay type: cell-based, human; details: in a time, cell or concentration dependent manner
Procedure: as §2, with “This method applies to any mammalian cell line but was typically applied to human MM1s myeloma cells for EC50 and RPMI […] plasmacytoma cells for confirmation of selected compounds. Briefly,” for “Briefly,”
as §3

RPMI 8226 tumor cells = assay: Intratumoral XBP-1 spliced effect in Velcade treated RPMI xenografts; assay type: in vivo, Nude mice; details: Velcade 0.8 mg/kg IV on day 21 and day 24, RPMI 8226 xenograft
Procedure: The mice were treated again on the 24th day with Velcade®. On Day 27, the mice were treated with Orin 1001 at 30 mg/kg PO, four hours later the mice were sacrificed as in Example 25, and tumor tissues were isolated. In a similar way as described for the liver PD test in Example 25, RNA extraction and RT-PCR analysis gave the results as shown FIG. 13.
BALB/c mice were injected intraperitoneally with 100 microliters at an equivalent dose of 1 mg/kg tunicamycin solution. Two hours after tunicamycin injection, mice were dosed with compound of interest either PO or IV. Following 2 hours for PO delivery of compound, mice were euthanized according to IACUC protocols using CO2 from a […] source. A 1 cm^3 fragment of the liver for homogenization and extraction of the RNA were collected for further analysis. Total RNA is harvested from cells or tissue using TRIzol according to the manufacturer's procedures. After ethanol precipitation and resuspension of the RNA, RiboGreen (Invitrogen) is used to quantify the yield and normalize the RNA concentration in the source tube containing isolated RNA. RT-PCR is performed by Oligo(dT) priming, and SuperScript II (Invitrogen) transcription using the Amplitaq Gold Kit (Applied Biosystems) according to the manufacturer's protocols. […]

[4] = Oral bioavailability test, rat; details: in vivo, 10 mg/kg dose
Procedure: (§4) All PK experiments are standard tests that performed in either WuXi PharmaTech or Charels River Laboratory. 4315 and 4485 (Orin 1001) were dosed PO as a suspension in 1% microcellulose (Sigma) and 50% Sucrouse (Sigma).

[5] = Oral bioavailability test, dog; details: in vivo, 10 mg/kg dose
Procedure: as §4

IRE1α = biological target: T1, IRE1α (Mus musculus, UniProt Q9EQY0); assay: Liver PD screening assay: XBP-1 splicing analysis of liver after tunicamycin (Example 25); assay type: in vivo, BALB/c mice
T1 construct: from tissue; host or cells: liver of BALB/c mice (in vivo)
Procedure: Example 25 was related to comparative PD/PK data of Orin 1001 VS compound 4315, as its structure shown below, which is an earlier lead of this series of compounds. Tunicamycin was used herein to activate IRE1, then Orin 1001 (also called 4485) or 4315 were given to inhibit the activating effect. […] Each gel panel represents one mouse liver sample as in the figure.
BALB/c mice were injected intraperitoneally with 100 microliters at an equivalent dose of 1 mg/kg tunicamycin solution. Two hours after tunicamycin injection, mice were dosed with compound of interest either PO or IV. Following 2 hours for PO delivery of compound, mice were euthanized according to IACUC protocols using CO2 from a […] source. A 1 cm^3 fragment of the liver for homogenization and extraction of the RNA were collected for further analysis. Total RNA is harvested from cells or tissue using TRIzol according to the manufacturer's procedures. After ethanol precipitation and resuspension of the RNA, RiboGreen (Invitrogen) is used to quantify the yield and normalize the RNA concentration in the source tube containing isolated RNA. RT-PCR is performed by Oligo(dT) priming, and SuperScript II (Invitrogen) transcription using the Amplitaq Gold Kit (Applied Biosystems) according to the manufacturer's protocols. Primers for human XBP-1 are 5_-[…]-3_ (forward, Seq ID No. 8) and 5_-[…]-3_ (reverse, Seq ID No. 9), and for mouse are 5_-[…]-3_ (forward, Seq ID No. 10) and 5_-[…]-3 (Seq ID No. 11). All DNA oligos were purchased from IDT DNA Technologies. PCR is run on a Bio-Rad PTC-100 96-well thermocycler with heating at 94° C. for 30 s, annealing at 58° C. for 30 s, and polymerizing at 72° C. for 30 s for 35 cycles. Reactions are run on 4% precast NuSieve gels from Cambrex and visualized by ethidium bromide staining and UV excitation.
as §4

[6] = Oral bioavailability test, mouse; details: in vivo, 5 mg/kg dose
Procedure: as §4

[7] = Orin 1001 300 mg/kg/day oral 28 days, paclitaxel 15 mg/kg iv weekly, endpoint 2000 mm^3 or Day 60

T1 sequence (Q9EQY0 21-977): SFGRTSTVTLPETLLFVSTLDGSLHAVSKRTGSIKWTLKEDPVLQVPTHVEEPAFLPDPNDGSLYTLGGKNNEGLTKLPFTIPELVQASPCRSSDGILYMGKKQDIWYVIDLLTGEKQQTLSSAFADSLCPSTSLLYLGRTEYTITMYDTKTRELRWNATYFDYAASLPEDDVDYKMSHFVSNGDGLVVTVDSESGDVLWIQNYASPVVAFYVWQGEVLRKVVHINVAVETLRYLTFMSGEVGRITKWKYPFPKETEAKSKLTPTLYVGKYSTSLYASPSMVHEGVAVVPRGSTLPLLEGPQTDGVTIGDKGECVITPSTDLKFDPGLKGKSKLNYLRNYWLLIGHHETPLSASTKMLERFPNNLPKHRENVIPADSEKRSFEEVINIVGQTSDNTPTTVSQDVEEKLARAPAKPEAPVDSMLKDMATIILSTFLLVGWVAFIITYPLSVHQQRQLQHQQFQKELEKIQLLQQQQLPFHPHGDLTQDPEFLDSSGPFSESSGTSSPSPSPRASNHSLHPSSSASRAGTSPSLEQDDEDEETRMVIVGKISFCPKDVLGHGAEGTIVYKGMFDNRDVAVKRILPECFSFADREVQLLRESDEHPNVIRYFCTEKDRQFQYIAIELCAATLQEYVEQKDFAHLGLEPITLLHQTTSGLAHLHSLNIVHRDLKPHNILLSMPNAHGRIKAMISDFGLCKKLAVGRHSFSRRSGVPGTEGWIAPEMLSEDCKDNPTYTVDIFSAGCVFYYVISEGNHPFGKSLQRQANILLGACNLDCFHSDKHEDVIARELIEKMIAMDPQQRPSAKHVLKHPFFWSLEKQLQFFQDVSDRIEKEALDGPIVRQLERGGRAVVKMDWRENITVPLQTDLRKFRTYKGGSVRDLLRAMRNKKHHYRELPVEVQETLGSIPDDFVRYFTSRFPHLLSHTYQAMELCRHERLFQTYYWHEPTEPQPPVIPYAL

CC(=O)O[C@H]1C(=O)[C@@]2(C)[C@H]([C@H](OC(=O)c3ccccc3)[C@]3(O)C[C@H](OC(=O)[C@H](O)[C@@H](NC(=O)c4ccccc4)c4ccccc4)C(C)=C1C3(C)C)[C@]1(OC(C)=O)CO[C@@H]1C[C@@H]2O [Paclitaxel]
partial regressions [1]: 1 | percent tumor growth delay (TGD) [2]: 40% | percent tumor growth delay (TGD) [3, 7]: 17% | time to tumor endpoint (TTE) [3, 7]: 30.2 days | tumor delay effect over the control ([3]; each agent alone): not very significant | levels of XBP1s (RPMI 8226 cells; 1 hour of treatment): high levels | levels of XBP1s (RPMI 8226 cells; 2 hours of treatment): modest levels | levels of XBP1s (RPMI 8226 cells; 4 hours of treatment): modest levels | induction of XBP1s (XBP1s): able to induce XBP1s

CC(C)C[C@H](NC(=O)[C@H](Cc1ccccc1)NC(=O)c1cnccn1)B(O)O [Velcade®, [(1R)-3-methyl-1-[[(2S)-1-oxo-3-phenyl-2-[(pyrazinylcarbonyl)amino]propyl]amino]butyl] boronic acid]
level of XBP1s in tumor (RPMI 8226 tumor cells): increased the level of XBP1s

Cc1c(-c2ccc(C(=O)NCCN3CCOCC3)cc2)c(=O)oc2c(C=O)c(O)ccc12 [compound 4315]
bioavailability [4]: 36% | bioavailability [5]: 17% | ED50 (IRE1α; read-out: ED50 (inhibition of XBP-1 splicing in liver), PO, 2 hours after tunicamycin 1 mg/kg ip, liver 2 hours after dosing, FIG. 23): > 10 mg/kg | ED50 (IRE1α; read-out: ED50 (inhibition of XBP-1 splicing in liver), separate experiment): 50 mg/kg | bioavailability [6]: 23%
